Tests used:
Assay type in all cases: in vivo
ISO-induced zebrafish [1] = experiment: ISO-induced zebrafish pericardial edema (pericardial height); settings: ISO=0.02 mg/L, CoQ10=4.0 mg/L, 24 hours; vs ISO group
Procedure: (§1) Three-day post fertilization wild-type zebrafish with normal development are used for the experiment and divided them into 4 groups, namely the control group, the ISO group (ISO=0.02 mg/L), the TC group (CoQ10=4.0 mg/L), and the CoQ10 group (CoQ10=4.0 mg/L), 30 in each group; The zebrafish in the ISO group are immersed in the ISO solution prepared with embryo culture water for 24 hours, then taken out and recorded their heart rate under a microscope. The signs of successful ISO-induced myocardial injury in zebrafish are a significant decrease in heart rate and the formation of pericardial edema. The zebrafish in the TC and CoQ10 groups are respectively immersed in embryo breeding water containing ISO and TC or CoQ10, incubated for 24 hours and then taken out for photography under a microscope.
Images are used to measure the height of the pericardium, the distance between the front of the yolk sac and the top of the pericardium, as shown by the arrow in FIG. 3(A).

ISO-induced zebrafish [2] = experiment: Cardiac function of ISO-induced zebrafish myocardial injury model; settings: ISO=0.02 mg/L, CoQ10=4.0 mg/L, 24 hours; vs ISO group
Procedure: (§2) The zebrafish experiments are conducted in accordance to the internationally accepted standards. The wild type zebrafish strain AB is provided by the Developmental Biology Platform of Chongqing Medical University. Using the Shanghai Haisheng zebrafish aquatic ecosystem, the temperature in the fish tank is 28.5° C., the water temperature is 28-30° C., the salinity is 0.03%-0.04%, the pH is 7.2-7.6, and the photoperiod is 14 h light-10 h dark.
as §1
(§3) First, the zebrafish are placed at room temperature and counted the number of heart beats within 15 seconds under a microscope. Then, the heart rate is obtained by multiplying it by 4. Then the zebrafish are placed in a petri dish, fixed with 1% low-melting agar, and held in a lateral position (with the eyes on top of the segments and the tail at the same level as the body). Fifty-eight images are generated by using an inverted fluorescence microscope for five consecutive shots. The diastolic and systolic images are selected, and the length (a) and width (b) of the ventricles are measured. The volume (V) of the ventricles is calculated with the ellipsoidal volume formula, and the surface area (S) of the ventricles is calculated with the elliptical area formula. The stroke-volume (SV), ejection fraction (EF), and fractional area change (FAC), cardiac output (CO) of zebrafish are calculated. Ventricular volume (V)=4/3π(a/2) (b/2)^2; Stroke-volume (SV)=Vdiastolic−Vsystolic; Ejection Fraction (EF)=(Vdiastole−Vsystole)/Vdiastole; Ventricular surface area (S)=(a/2) (b/2)π; Fractional Area Change (FAC)=(Sdiastolic−Ssystolic)/Sdiastolic; Cardiac Output (CO)=Cardiac volume*heart rate.

LDH = experiment: Lactate dehydrogenase (LDH) in ISO-induced zebrafish; settings: ISO=0.02 mg/L, CoQ10=4.0 mg/L, 24 hours; vs ISO group
Procedure: as §1
(§4) The detection of SOD and LDH are carried out according to the instructions of the kits, which are purchased from NanJing JianCheng Bioengineering Institute with the article numbers of A001-3, A020-2 and A019-2-1, respectively.

[3] = tested on: brain natriuretic peptide (BNP); experiment: BNP gene expression by RT-PCR in ISO-induced zebrafish; settings: ISO=0.02 mg/L, CoQ10=4.0 mg/L, 24 hours; vs ISO group
Procedure: as §1
(§5) Zebrafish RNA extraction, reverse transcription and quantitative amplification are performed in accordance with the instructions of the kit obtained from Nanjing Vazyme Biotech Co., Ltd, the article numbers are RC101, R223-01 and Q711-02.
(§6) ANP refers to atrial natriuretic peptide, BNP refers to brain natriuretic peptide, GAPDH refers to glyceraldehyde 3-phosphate dehydrogenase.

H/R zebrafish = experiment: Cardiac function of hypoxia-reoxygenation (H/R) zebrafish; settings: CoQ10=4.0 mg/L, reoxygenation 24 hours, vs H/R group
Procedure: as §2
Three-day post fertilization wild-type of zebrafish with normal development are used for the experiment. The zebrafish are divided into 4 groups, namely the control group, the H/R (Hypoxia-reoxygenation) group, the TC group (CoQ10=4.0 mg/L), and the CoQ10 group (CoQ10=4.0 mg/L), n=30. Fill the beaker with circulating water for fish breeding, and then fill the water with high purity nitrogen. At the same time, use dissolved oxygen meter to detect the oxygen concentration in the water. Stop filling nitrogen until the oxygen concentration is stable at 0.00 mg/L. The air in the bevel glass bottle is discharged with nitrogen, and the prepared hypoxic water is put into the bevel glass bottle. The juvenile zebrafish of 3 days are put into the bottle, the cap is tightened, the glass bottle is placed into a plastic sealed bag, and then the sealed bag is vacuumed to ensure that no air enters. The end point of hypoxia is that the young fish sank to the bottom and remained motionless for 1 minute. At the same time, the zebrafish bent its body, turned the glass bottle upside down and then put it flat. The zebrafish sank head down and vertically. Then, the zebrafish are taken out and put into aquaculture water or medicine solution prepared with aquaculture water. After reoxygenation for 24 hours, the heart function indexes of zebrafish are examined.
as §3

SOD = experiment: Superoxide dismutase (SOD) in ISO-induced zebrafish; settings: ISO=0.02 mg/L, CoQ10=4.0 mg/L, 24 hours; vs ISO group
Procedure: as §1, §4

[4] = tested on: atrial natriuretic peptide (ANP); experiment: ANP gene expression by RT-PCR in ISO-induced zebrafish; settings: ISO=0.02 mg/L, CoQ10=4.0 mg/L, 24 hours; vs ISO group
Procedure: as §1, §5, §6

In the case of `COC1=C(OC)C(=O)C(C/C=C(\C)CC/C=C(\C)CC/C=C(\C)CC/C=C(\C)CC/C=C(\C)CC/C=C(\C)CC/C=C(\C)CC/C=C(\C)CC/C=C(\C)CCC=C(C)C)=C(C)C1=O` [CoQ10, Coenzyme Q10], the “pericardial edema (pericardial height)” value (ISO-induced zebrafish [1]) is reported as “no effect”, the “cardiac output (CO)” value (ISO-induced zebrafish [2]) is reported as “significantly increase” and the “ejection fraction (EF)” value (ISO-induced zebrafish [2]) is reported as “significantly increase”. For the same compound, the “fractional area change (FAC)” value (ISO-induced zebrafish [2]) was “significantly increase”, the heart rate (ISO-induced zebrafish [2]) was “no significant effect” and the “stroke volume (SV)” value (ISO-induced zebrafish [2]) was “significantly increase”. For the same compound, the “activity of LDH” value (LDH) was “reduced the activity of LDH, the result is insignificant”, the “excessive expression of BNP” value [3] was “significantly reduce” and the “cardiac output (CO)” value (H/R zebrafish) was “significantly increase”. For the same compound, the “ejection fraction (EF)” value (H/R zebrafish) was “significantly increase”, the “fractional area change (FAC)” value (H/R zebrafish) was “significantly increase” and the heart rate (H/R zebrafish) was “no significant effect”. The “stroke volume (SV)” value (H/R zebrafish) was “significantly increase”, the “activity of SOD” value (SOD) was “no significantly effect” and the “excessive expression of ANP” value [4] was “significantly reduce”.

From patent publication US20230111558A1, “Composition for Preventing and Treating Heart Dysfunction and its Application Thereof” (21ST CENTURY HERBS & HEALTH, priority 2021, published 2023)
